In patent publication US11548901B2, “Substituted 1,4-methanopyrido[1′,2′:4,5]pyrazino[1,2-a]pyrimidines for treating viral infections” (Gilead Sciences, Inc., priority 2012, dated 2023):

Test system: HIV-IIIb
Experiment: Antiviral assay in MT4 cells
Assay type: cell-based
Settings: Human immunodeficiency virus 1, IIIB, MT4, 120 h, read-out: EC50 nM in MT-4
Method: For the antiviral assay utilizing MT4 cells, 0.4 μL of […] test concentration of 3-fold serially diluted compound in DMSO was added to 40 μL of cell growth medium (RPMI 1640, 10% FBS, 1% penicilline/Streptomycine, 1% L-Glutamine, 1% HEPES) in each well of 384-well assay plates (10 concentrations) in quidruplicate.
1 mL aliquots of 2×10^6 MT4 cells are pre-infected for 1 and 3 hours respectively at 37° C. with 25 μL (MT4) or of either cell growth medium (mock-infected) or a fresh 1:250 dilution of an HIV-IIIb concentrated ABI stock (0.004 m.o.i. for MT4 cells). Infected and uninfected cells are diluted in cell growth medium and 35 μL of 2000 (for MT4) cells is added to each well of the assay plates.
Assay plates were then incubated in a 37° C. incubator. […] Cell lysis was carried out by incubating at room temperature for 2-3 minutes, and then chemiluminescence was read using the Envision reader (PerkinElmer).

With `CC1CC2CC1OC1Cn3cc(C(=O)NCc4ccc(F)cc4F)c(=O)c(O)c3C(=O)N21` (single isomer, unassigned) [Compound 40] the EC50 was 2.4 nM.
